Measurements reported in ChEMBL document CHEMBL4316586, “A comprehensive review of salinomycin derivatives as potent anticancer and anti-CSCs agents” (Eur J Med Chem, 2019).
Blank lines part the entries; values can stand above or below the compound they belong to.

Experiments:
HT-29 = experiment: Antiproliferative activity against human HT-29 cells after 48 hrs by MTT assay; format: functional, cell-based; settings: HT-29, 48 h
HGC-27 [1] = experiment: Antiproliferative activity against human HGC27 cells after 48 hrs by MTT assay; format: functional, cell-based; settings: HGC-27, 48 h
MDA-MB-231 [2] = experiment: Antiproliferative activity against human MDA-MB-231 cells after 48 hrs by MTT assay; format: functional, cell-based; settings: MDA-MB-231, 48 h
JIMT-1 [3] = experiment: Antiproliferative activity against human JIMT1 cells after 72 hrs by MTT assay; format: functional, cell-based; settings: JIMT-1, 72 h
HCC1937 [4] = experiment: Antiproliferative activity against human HCC1937 cells after 72 hrs by MTT assay; format: functional, cell-based; settings: HCC1937, 72 h
HCC1937 [5] = experiment: Antiproliferative activity against human HCC1937 cells; format: functional, cell-based
U-87 MG = experiment: Antiproliferative activity against human U87 cells by MTT assay; format: functional, cell-based, U-87MG ATCC
HeLa = experiment: Antiproliferative activity against human HeLa cells by MTT assay; format: functional, cell-based
Caco-2 = experiment: Antiproliferative activity against human Caco2 cells by MTT assay; format: functional, cell-based
4T1 = experiment: Antiproliferative activity against mouse 4T1 cells by MTT assay; format: functional, cell-based
JIMT-1 [6] = experiment: Antiproliferative activity against human JIMT1 cells; format: functional, cell-based
MCF7 [7] = experiment: Antiproliferative activity against human MCF7 cells; format: functional, cell-based
MCF7 [8] = experiment: Antiproliferative activity against human MCF7 cells by SRB assay; format: functional, cell-based
LoVo = experiment: Antiproliferative activity against human LoVo cells by SRB assay; format: functional, cell-based
[9] = Antiproliferative activity against human LoVo/DX cells by SRB assay; format: functional, cell-based
JIMT-1 [10] = experiment: Antiproliferative activity against human JIMT1 cells by SRB assay; format: functional, cell-based
SK-BR-3 = experiment: Antiproliferative activity against human SKBR3 cells by SRB assay; format: functional, cell-based
MCF-10A = experiment: Antiproliferative activity against human MCF10A cells by SRB assay; format: cell-based
HGC-27 [11] = experiment: Antiproliferative activity against human HGC27 cells by MTT assay; format: functional, cell-based
MDA-MB-231 [12] = experiment: Antiproliferative activity against human MDA-MB-231 cells by MTT assay; format: functional, cell-based
JIMT-1 [13] = experiment: Antiproliferative activity against human JIMT1 cells by MTT assay; format: functional, cell-based
MCF7 [14] = experiment: Antiproliferative activity against human MCF7 cells by MTT assay; format: functional, cell-based
[15] = Antiproliferative activity against HMLER cells by MTT assay Breast cancer stem cell; format: functional, cell-based; settings: Homo sapiens
MDA-MB-231 [16] = experiment: Antiproliferative activity against human MDA-MB-231 cells by SRB assay; format: functional, cell-based

Structure (SMILES): CC[C@@H](C(=O)[C@@H](C)[C@@H](O)[C@H](C)[C@@H]1O[C@@H]([C@@H](CC)C(=O)O)CC[C@@H]1C)[C@H]1O[C@@]2(C=C[C@@H](O)[C@@]3(CC[C@@](C)([C@H]4CC[C@](O)(CC)[C@H](C)O4)O3)O2)[C@H](C)C[C@@H]1C
IC50 (HT-29): 0.75 µM | IC50 (HGC-27 [1]): 0.62 µM | IC50 (MDA-MB-231 [2]): 5.7 µM

Structure (SMILES): CC[C@@H](C(=O)[C@@H](C)[C@@H](O)[C@H](C)[C@@H]1O[C@@H]([C@@H](CC)C(=O)O)CC[C@@H]1C)[C@H]1O[C@]2(C=CC[C@]3(CC[C@@](C)([C@H]4CC[C@](O)(CC)[C@H](C)O4)O3)O2)[C@H](C)C[C@@H]1C
IC50 (JIMT-1 [3]): 1.73 µM | IC50 (HCC1937 [4]): > 10 µM

Structure (SMILES): CC[C@@H](C(=O)[C@@H](C)[C@@H](O)[C@H](C)[C@@H]1O[C@@H]([C@@H](CC)C(=O)OCC[Si](C)(C)C)CC[C@@H]1C)[C@H]1O[C@]2(C=C[C@@H](O)[C@]3(CC[C@@](C)([C@H]4CC[C@](O)(CC)[C@H](C)O4)O3)O2)[C@H](C)C[C@@H]1C
IC50 (HCC1937 [5]): 4.36 µM

Structure (SMILES): CC[C@@H](C(=O)[C@@H](C)[C@@H](O)[C@H](C)[C@@H]1O[C@@H]([C@@H](CC)C(=O)O)CC[C@@H]1C)[C@H]1O[C@]2(C=C[C@H](n3cc(COC(C(F)(F)F)(C(F)(F)F)C(F)(F)F)nn3)[C@]3(CC[C@@](C)([C@H]4CC[C@](O)(CC)[C@H](C)O4)O3)O2)[C@H](C)C[C@@H]1C
IC50 (U-87 MG): 16.6 µM | IC50 (HeLa): 0.29 µM | IC50 (Caco-2): 0.44 µM

Structure (SMILES): CC[C@@H](C(=O)[C@@H](C)[C@@H](O)[C@H](C)[C@@H]1O[C@@H]([C@@H](CC)C(=O)O)CC[C@@H]1C)[C@H]1O[C@]2(CCC(=O)[C@]3(CC[C@@](C)([C@H]4CC[C@](O)(CC)[C@H](C)O4)O3)O2)[C@H](C)C[C@@H]1C
IC50 (JIMT-1 [6]): 2.68 µM | IC50 (MCF7 [7]): 3.11 µM

Structure (SMILES): CC[C@@H](C(=O)[C@@H](C)[C@@H](O)[C@H](C)[C@@H]1O[C@@H]([C@@H](CC)C(=O)O)CC[C@@H]1C)[C@H]1O[C@]2(C=C[C@@H](OC(=O)c3ccc(C(=O)O[C@@H]4C=C[C@]5(O[C@H]([C@@H](CC)C(=O)[C@@H](C)[C@@H](O)[C@H](C)[C@@H]6O[C@@H]([C@@H](CC)C(=O)O)CC[C@@H]6C)[C@@H](C)C[C@H]5C)O[C@@]45CC[C@@](C)([C@H]4CC[C@](O)(CC)[C@H](C)O4)O5)cc3)[C@]3(CC[C@@](C)([C@H]4CC[C@](O)(CC)[C@H](C)O4)O3)O2)[C@H](C)C[C@@H]1C
IC50 (MCF7 [8]): 1.8 µM | IC50 (LoVo): 1.2 µM | IC50 [9]: 2.8 µM | IC50 (JIMT-1 [10]): 2.4 µM | IC50 (SK-BR-3): 1 µM | IC50 (MCF-10A): 21 µM

Structure (SMILES): CC[C@@H](C(=O)[C@@H](C)[C@@H](O)[C@H](C)[C@@H]1O[C@@H]([C@@H](CC)C(=O)O)CC[C@@H]1C)[C@H]1O[C@@]2(C=C[C@@H](O)[C@]3(CC[C@@](C)([C@H]4CC[C@](O)(CC)[C@H](C)O4)O3)O2)[C@H](C)C[C@@H]1C
IC50 (HT-29): > 10 µM | IC50 (HGC-27 [1]): > 10 µM | IC50 (MDA-MB-231 [2]): > 10 µM

Structure (SMILES): CC[C@@H]([C@@H](O)[C@@H](C)[C@@H](O)[C@H](C)[C@@H]1O[C@@H]([C@@H](CC)C(=O)O)CC[C@@H]1C)[C@H]1O[C@]2(C=C[C@@H](O)[C@]3(CC[C@@](C)([C@H]4CC[C@](O)(CC)[C@H](C)O4)O3)O2)[C@H](C)C[C@@H]1C
IC50 (JIMT-1 [6]): 12.5 µM | IC50 (MCF7 [7]): 13.7 µM

Structure (SMILES): CC[C@@H](C(=O)[C@@H](C)[C@@H](O)[C@H](C)[C@@H]1O[C@@H]([C@@H](CC)C(=O)O)CC[C@@H]1C)[C@H]1O[C@]2(CC[C@@H](O)[C@]3(CC[C@@](C)([C@H]4CC[C@](O)(CC)[C@H](C)O4)O3)O2)[C@H](C)C[C@@H]1C
IC50 (JIMT-1 [6]): 1 µM | IC50 (MCF7 [7]): 0.89 µM

Structure (SMILES): CC[C@@H]([C@H](O)[C@@H](C)[C@@H](O)[C@H](C)[C@@H]1O[C@@H]([C@@H](CC)C(=O)O)CC[C@@H]1C)[C@H]1O[C@]2(C=C[C@@H](O)[C@]3(CC[C@@](C)([C@H]4CC[C@](O)(CC)[C@H](C)O4)O3)O2)[C@H](C)C[C@@H]1C
IC50 (JIMT-1 [6]): 15.6 µM | IC50 (MCF7 [7]): 12.5 µM

Structure (SMILES): CC[C@@H](C(=O)[C@@H](C)[C@@H](O)[C@H](C)[C@@H]1O[C@@H]([C@@H](CC)C(=O)O)CC[C@@H]1C)[C@H]1O[C@]2(CCC[C@]3(CC[C@@](C)([C@H]4CC[C@](O)(CC)[C@H](C)O4)O3)O2)[C@H](C)C[C@@H]1C
IC50 (JIMT-1 [3]): 2.08 µM | IC50 (HCC1937 [4]): > 10 µM

Structure (SMILES): CC[C@@H](C(=O)[C@@H](C)[C@@H](O)[C@H](C)[C@@H]1O[C@@H]([C@@H](CC)C(=O)O)CC[C@@H]1C)[C@H]1O[C@]2(C=C[C@@H](O)[C@]3(CC[C@@](C)([C@H]4CC[C@](O)(CC)[C@H](C)O4)O3)O2)[C@H](C)C[C@@H]1C [SALINOMYCIN]
IC50 (HGC-27 [11]): 2.57 µM | IC50 (MDA-MB-231 [12]): 6.91 µM | IC50 (JIMT-1 [13]): 0.52 µM | IC50 (MCF7 [14]): 0.59 µM | IC50 (U-87 MG): 38.7 µM | IC50 (HeLa): 0.32 µM | IC50 (Caco-2): 13 µM | IC50 [15]: 0.1 µM | IC50 (JIMT-1 [6]): 0.52 µM | IC50 (HT-29): 3.21 µM | IC50 (HGC-27 [1]): 8.18 µM | IC50 (MDA-MB-231 [2]): > 10 µM | IC50 (MDA-MB-231 [16]): 6.42 µM | IC50 [9]: 0.69 µM

More lines, main results first:

IC50 (HT-29): > 10 µM | IC50 (MDA-MB-231 [2]): > 10 µM
Structure (SMILES): CC[C@@H](C(=O)[C@@H](C)[C@@H](O)[C@H](C)[C@@H]1O[C@@H]([C@@H](CC)C(=O)O)CC[C@@H]1C)[C@H]1O[C@@]2(C=C[C@@H](OCc3ccccc3)[C@]3(CC[C@@](C)([C@H]4CC[C@](O)(CC)[C@H](C)O4)O3)O2)[C@H](C)C[C@@H]1C
IC50 (HGC-27 [1]): > 10 µM

IC50 (HT-29): 2.8 µM | IC50 (MDA-MB-231 [2]): 6.56 µM
Structure (SMILES): CC[C@@H](C(=O)[C@@H](C)[C@@H](O)[C@H](C)[C@@H]1O[C@@H]([C@@H](CC)C(=O)O)CC[C@@H]1C)[C@H]1O[C@@]2(C=C[C@@H](OCc3ccccc3)[C@@]3(CC[C@@](C)([C@H]4CC[C@](O)(CC)[C@H](C)O4)O3)O2)[C@H](C)C[C@@H]1C
IC50 (HGC-27 [1]): 4.14 µM

IC50 (U-87 MG): 15.7 µM | IC50 (HeLa): 0.61 µM | IC50 (Caco-2): 3.31 µM
Structure (SMILES): CC[C@@H](C(=O)[C@@H](C)[C@@H](O)[C@H](C)[C@@H]1O[C@@H]([C@@H](CC)C(=O)O)CC[C@@H]1C)[C@H]1O[C@]2(C=C[C@H](n3cc(-c4ccccn4)nn3)[C@]3(CC[C@@](C)([C@H]4CC[C@](O)(CC)[C@H](C)O4)O3)O2)[C@H](C)C[C@@H]1C

IC50 (4T1): 3.69 µM
Structure (SMILES): CC[C@@H](C(=O)[C@@H](C)[C@@H](O)[C@H](C)[C@@H]1O[C@@H]([C@@H](CC)C(=O)O)CC[C@@H]1C)[C@H]1O[C@]2(C=C[C@H](n3cc(-c4ccc(Br)cc4)nn3)[C@]3(CC[C@@](C)([C@H]4CC[C@](O)(CC)[C@H](C)O4)O3)O2)[C@H](C)C[C@@H]1C

IC50 (4T1): 3.83 µM
Structure (SMILES): CC[C@@H](C(=O)[C@@H](C)[C@@H](O)[C@H](C)[C@@H]1O[C@@H]([C@@H](CC)C(=O)O)CC[C@@H]1C)[C@H]1O[C@]2(C=C[C@H](n3cc(-c4ccccc4C(=O)OC)nn3)[C@]3(CC[C@@](C)([C@H]4CC[C@](O)(CC)[C@H](C)O4)O3)O2)[C@H](C)C[C@@H]1C

IC50 (U-87 MG): 18.9 µM | IC50 (HeLa): 2.01 µM | IC50 (Caco-2): 1.82 µM
Structure (SMILES): CC[C@@H](C(=O)[C@@H](C)[C@@H](O)[C@H](C)[C@@H]1O[C@@H]([C@@H](CC)C(=O)O)CC[C@@H]1C)[C@H]1O[C@]2(C=C[C@H](n3cc(-c4ccc(C(C)(C)C)cc4)nn3)[C@]3(CC[C@@](C)([C@H]4CC[C@](O)(CC)[C@H](C)O4)O3)O2)[C@H](C)C[C@@H]1C
